Source: patent US20070155955A1, “Amylin aggregation inhibitors and use thereof” (APPLIED RESEARCH SYSTEMS ARS HOLDING N.V., priority 2003, published 2007)
No end group written: not given here.

Experiment: In vitro peptide solubility assay (qualitative, pellet after centrifugation)
Assay type: physicochemical
Conditions: Tris buffer, pH 7.4; read-out: Solubilty
Procedure: Solubility of peptides of the invention was obtained using a qualitative assay where the peptide was dissolved in Tris buffer, pH 7.4 at 1, 5, or 10 mg/ml, vortexed briefly, and then centrifuged at 16,000 g for 30 min.

| Substance | solubility [µg/mL] |
| --- | --- |
| NFGAILS [SEQ ID NO. 10] | < 200 |
| DFGAPL [SEQ ID NO. 2] | > 10000 |
| DFGAILD [SEQ ID NO. 12] | ≥ 2000 |
| DFGAPLD [SEQ ID NO. 4] | > 10000 |
| Ac-DFGAPL-NH2 (N-terminus and C-terminus assumed) [SEQ ID NO. 3] | > 10000 |
| NFGAPLS [SEQ ID NO. 11] | < 1000 |
